In BindingDB's records for doi:10.1021/acsmedchemlett.7b00157 (Novartis Institutes For Biomedical Research, 2017):

Molecular target: not listed separately
Assay: Antagonist activity at DP2 receptor in human whole assessed as inhibition of DK-PGD2-induced eosinophils shape change preincubated for 5 mins followed by DK-PGD2 addition measured after 5 mins by flow cytometry

| SMILES | IC50 [nM] |
| --- | --- |
| Cc1c(CC(=O)O)c2ccccc2n1Cc1ccc(S(C)(=O)=O)cc1 | 188 |
| Cc1c(CC(=O)O)c2cccnc2n1Cc1ccc(C(F)(F)F)cc1C(F)(F)F | 214 |
| CCS(=O)(=O)c1ccc(Cn2c(C)c(CC(=O)O)c3cccnc32)c(C(F)(F)F)c1 | 4 |
| Cc1cc(S(C)(=O)=O)ccc1Cn1c(C)c(CC(=O)O)c2cccnc21 | 32 |
| Cc1c(CC(=O)O)c2cccnc2n1Cc1ccc(S(C)(=O)=O)cc1Cl | 47 |
| Cc1c(CC(=O)O)c2cccnc2n1Cc1ccc(S(C)(=O)=O)c(C(F)(F)F)c1 | 11 |

Molecular target: T1, Prostaglandin D2 receptor 2 (Homo sapiens, UniProt Q9Y5Y4)
T1 sequence (Q9Y5Y4 whole entry): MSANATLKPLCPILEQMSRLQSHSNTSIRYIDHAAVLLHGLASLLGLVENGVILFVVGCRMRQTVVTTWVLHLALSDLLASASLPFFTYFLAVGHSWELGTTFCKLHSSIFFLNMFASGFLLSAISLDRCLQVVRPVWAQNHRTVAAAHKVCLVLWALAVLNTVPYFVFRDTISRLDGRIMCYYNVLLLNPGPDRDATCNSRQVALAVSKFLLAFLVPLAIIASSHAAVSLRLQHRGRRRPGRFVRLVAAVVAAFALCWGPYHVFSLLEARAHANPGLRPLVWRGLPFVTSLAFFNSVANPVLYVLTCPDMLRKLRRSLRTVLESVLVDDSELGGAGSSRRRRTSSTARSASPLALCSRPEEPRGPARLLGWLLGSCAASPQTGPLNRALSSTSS
Assay: Antagonist activity at DP2 receptor in human whole assessed as inhibition of DK-PGD2-induced eosinophils shape change preincubated for 5 mins followed by DK-PGD2 addition measured after 5 mins by flow cytometry

| SMILES | IC50 [nM] |
| --- | --- |
| CCS(=O)(=O)c1ccc(Cn2c(C)c(CC(=O)O)c3cccnc32)c(Cl)c1 | 7 |
